Data as given in patent US20220370406A1, “METHOD OF TREATING STIMULANT USE DISORDER USING A COMBINATION OF TOPIRAMATE AND PHENTERMINE” (University of Kentucky Research Foundation, priority 2019, published 2022).
Where two headings read alike, the source gives them in different places.

Tests used:
[1] = test system: participants with cocaine use disorder; experiment: Experimental sessions: subjective effects questionnaires after cocaine sampling dose during maintenance; details: for subjective effects of cocaine: maintenance on the drug alone; for cocaine-increased ratings of High, Like Drug, Active-Alert-Energetic, Rush and Stimulant Subscale: maintenance on topiramate and phentermine, alone or combined
[2] = test system: participants with cocaine use disorder; experiment: Experimental sessions: cardiovascular measures after cocaine sampling dose during maintenance; details: maintenance on the drug alone
[3] = test system: participants with cocaine use disorder; experiment: Cocaine self-administration on progressive-ratio task during topiramate-phentermine maintenance; type: in vivo, human
Description: The maintenance period for each condition was at least seven (7) days. Participants randomized to 50 or 100 mg/day topiramate initially received 12.5 and 25 mg immediate release topiramate, respectively, twice daily (0700 and 1900 hours) for three (3) days. Participants then received their target dose (i.e., 25 and 50 mg BID, respectively) for four (4) days prior to completing the first block of experimental sessions. This dosing regimen allowed participants to acclimate to a lower topiramate dose before receiving their target dose and was the rationale for topiramate being a between-subject variable. Participants randomized to placebo were also maintained for seven (7) days to maintain the study blind, but their capsules contained only cornstarch.
Phentermine (0, 15, 30 mg) was administered once daily at 0700 hours. Within each topiramate cohort, the phentermine doses were tested in ascending order such that the lower dose (15 mg/day) was tested prior to the higher dose (30 mg/day). This dosing sequence was violated twice due to oversight (i.e., one subject in the 0 mg/day topiramate group and the other in the 50 mg/day topiramate group). Both of these participants were initially maintained on 30 mg/day phentermine.
After at least seven (7) days of maintenance on the first topiramate-phentermine condition, participants completed a block of three experimental sessions described below. Maintenance on the assigned condition continued during each block of experimental sessions. Upon completion of the first block of experimental sessions, participants continued maintenance on the assigned topiramate condition, while the phentermine dose was changed to the next condition. Maintenance on the second topiramate-phentermine condition also lasted at least seven (7) days before the next block of experimental sessions was completed. […]
The reinforcing effects of cocaine during maintenance on the topiramate-phentermine combinations were assessed using a progressive-ratio task. […]

[4] = test system: participants with cocaine use disorder; details: in vivo

SMILES: CC(C)(N)Cc1ccccc1 [phentermine]
- subjective effects of cocaine [1]: did not significantly alter
- cocaine-increased ratings of High, Like Drug, Active-Alert-Energetic, Rush and Stimulant Subscale [1]: did not significantly alter
- cardiovascular effects of cocaine [2]: did not significantly alter
- cocaine self-administration ([3]; Phentermine alone): did not significantly reduce
- reinforcing effects of cocaine ([3]; maintenance on the drug alone): did not significantly alter

SMILES: CC1(C)O[C@@H]2[C@@H](CO[C@@]3(COS(N)(=O)=O)OC(C)(C)O[C@@H]23)O1 [topiramate]
- cardiovascular effects of cocaine [4]: did not alter
- subjective effects of cocaine [1]: did not alter
- cocaine-increased ratings of High, Like Drug, Active-Alert-Energetic, Rush and Stimulant Subscale [1]: did not significantly alter
- reduction of cocaine self-administration ([3]; cocaine 40 mg, Topiramate alone (100 mg/day)): 47%
